Laboratory results from ChEMBL document CHEMBL3272309, “Potential central nervous system antitumor agents. Aziridinylbenzoquinones. 1” (J Med Chem, 1976).

Legend:
[1] = Therapeutic ratio, ratio of highest active dose to lowest active for antitumor activity against in ip dosed mouse allografted with mouse L1210 cells; assay type: ADME, organism-based; details: in vivo, read-out: TI
P388 [2] = assay: Antitumor activity against mouse P388 cells allografted in mouse assessed as mouse survival at 0.39 mg/kg, ip qd administered from day 1 to 9 post intracerebral tumor-implantation relative to control; assay type: functional; details: route intraperitoneal
[3] = Antitumor activity against mouse ependymoblastoma cells allografted in mouse assessed as mouse survival at 0.5 mg/kg, ip qd administered from day 1 to 5 post intracerebral tumor-implantation relative to control; assay type: functional; details: route intraperitoneal
[4] = Antitumor activity against mouse ependymoblastoma cells allografted in mouse assessed as change in body weight at 1 mg/kg, ip qd administered from day 1 to 5 post intracerebral tumor-implantation measured on day 5 relative to control; assay type: functional; details: route intraperitoneal
[5] = Antitumor activity against mouse ependymoblastoma cells allografted in mouse assessed as change in body weight at 8 mg/kg, ip qd administered from day 1 to 5 post intracerebral tumor-implantation measured on day 5 relative to control; assay type: functional; details: route intraperitoneal
P388 [6] = assay: Antitumor activity against mouse P388 cells allografted in mouse assessed as mouse survival at 0.78 mg/kg, ip qd administered from day 1 to 9 post ip tumor-implantation relative to control; assay type: functional; details: route intraperitoneal
P388 [7] = assay: Antitumor activity against mouse P388 cells allografted in mouse assessed as change in body weight at 3.12 mg/kg, ip qd administered from day 1 to 9 post ip tumor-implantation measured on day 5 relative to control; assay type: functional; details: route intraperitoneal
P388 [8] = assay: Antitumor activity against mouse P388 cells allografted in mouse assessed as change in body weight at 1.56 mg/kg, ip qd administered from day 1 to 9 post ip tumor-implantation measured on day 5 relative to control; assay type: functional; details: route intraperitoneal

CCOC(=O)NC1=C(N2CC2)C(=O)C(NC(=O)OCC)=C(N2CC2)C1=O [DIAZIQUONE]
selectivity ratio [1]: 4 | T/C (P388 [2]): 102% | T/C [3]: 162% | Activity [4]: -2.1 g | Activity [5]: -5 g | T/C (P388 [6]): 199% | Activity (P388 [7]): -4.1 g | Activity (P388 [8]): -4 g
